Experiments:
[1] = target: T1, ABHD6 (Mus musculus (Mouse), UniProt Q8R2Y0); assay: In vitro competitive activity-based protein profiling (mouse brain membrane proteome), ABHD6 band; type: biochemical; details: read-out: ABHD6 % Inh 1 μM (mouse)
Description: (§1) In Vitro Competitive Activity-Based Protein Profiling.
(§2) Proteomes (mouse brain membrane fraction or cell lysates) (50 μL, 1.0 mg/mL total protein concentration) were preincubated with varying concentrations of inhibitors at 37° C. After 30 min, FP-Rh (1.0 μL, 50 μM in DMSO) was added and the mixture was incubated for another 30 min at 37° C. Reactions were quenched with SDS loading buffer (50 μL-4X) and run on SDS-PAGE. Following gel imaging, serine hydrolase activity was determined by measuring fluorescent intensity of gel bands corresponding to MAGL, ABHD6 and FAAH using ImageJ 1.43 u software.

[2] = target: T2, FAAH (Mus musculus (Mouse), UniProt O08914); assay: In vitro competitive activity-based protein profiling (mouse brain membrane proteome), FAAH band; type: biochemical; details: for inhibition at 1 µM: read-out: FAAH % Inh 1 μM (mouse)
Description: as §1, §2

[3] = target: T3, MAGL (Mus musculus (Mouse), UniProt O35678); assay: In vitro competitive activity-based protein profiling (mouse brain membrane proteome), MAGL band; type: biochemical; details: for inhibition at 1 µM: read-out: MAGL % Inh 1 μM (mouse)
Description: as §1
Proteomes (mouse brain membrane fraction or cell lysates) (50 μL, 1.0 mg/mL total protein concentration) were preincubated with varying concentrations of inhibitors at 37° C. After 30 min, FP-Rh (1.0 μL, 50 μM in DMSO) was added and the mixture was incubated for another 30 min at 37° C. Reactions were quenched with SDS loading buffer (50 μL-4X) and run on SDS-PAGE.

[4] = target: MAGL (Homo sapiens (Human), UniProt Q99685); assay: In vitro competitive activity-based protein profiling (human prefrontal cortex or cell membrane fractions; hMAGL expressed in HEK293T cells); type: biochemical; details: human proteome
Description: In Vitro Competitive Activity-Based Protein Profiling (Human).
Proteomes (human prefrontal cortex or cell membrane fractions) (50 μL, 1.0-2.0 mg/mL total protein concentration) were preincubated with varying concentrations of inhibitors at 37° C. After 30 min, FP-Rh or JW912 (1.0 μL, 50 μM in DMSO) was added and the mixture was incubated for another 30 min at room temperature. Reactions were quenched with SDS loading buffer (15 μL-4X) and run on SDS-PAGE.
Recombinant Expression of Human MAGL in HEK293T Cells.
Cell lysates were diluted with mock proteomes for use in competitive ABPP experiments.

[5] = target: T1, ABHD6; assay: Mouse brain proteomes from inhibitor treated mice (oral gavage, sacrifice 4 h after administration, ABPP analysis), ABHD6; type: in vivo; details: 5 mg/kg oral gavage
Procedure, shortened: (§3)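 Compounds were given by oral gavage to wild-type C57Bl/6J mice in a vehicle such as PEG400/Ethanol/PBS (7/2/1). Animals were sacrificed 4 h after dosing, and brain proteomes were prepared and analyzed by established ABPP methods. Values are % inhibition at 5 mg/kg.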

[6] = target: T2, FAAH; assay: Mouse brain proteomes from inhibitor treated mice (oral gavage, sacrifice 4 h after administration, ABPP analysis), FAAH; type: in vivo; details: 5 mg/kg oral gavage
Procedure, shortened: as §3

[7] = target: T3, MAGL; assay: Mouse brain proteomes from inhibitor treated mice (oral gavage, sacrifice 4 h after administration, ABPP analysis); type: in vivo; details: 5 mg/kg oral gavage
Procedure, shortened: as §3

T1 sequence (Q8R2Y0 whole entry): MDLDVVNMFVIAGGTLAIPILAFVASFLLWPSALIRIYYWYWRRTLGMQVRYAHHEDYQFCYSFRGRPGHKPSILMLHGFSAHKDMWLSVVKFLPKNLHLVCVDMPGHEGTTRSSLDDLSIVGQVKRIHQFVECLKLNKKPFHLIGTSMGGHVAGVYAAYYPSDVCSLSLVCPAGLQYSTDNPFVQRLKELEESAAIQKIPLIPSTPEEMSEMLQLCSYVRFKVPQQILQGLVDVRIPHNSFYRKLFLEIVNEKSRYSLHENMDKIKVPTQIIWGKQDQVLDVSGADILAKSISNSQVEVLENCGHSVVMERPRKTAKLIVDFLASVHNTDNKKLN
T3 sequence (O35678 whole entry): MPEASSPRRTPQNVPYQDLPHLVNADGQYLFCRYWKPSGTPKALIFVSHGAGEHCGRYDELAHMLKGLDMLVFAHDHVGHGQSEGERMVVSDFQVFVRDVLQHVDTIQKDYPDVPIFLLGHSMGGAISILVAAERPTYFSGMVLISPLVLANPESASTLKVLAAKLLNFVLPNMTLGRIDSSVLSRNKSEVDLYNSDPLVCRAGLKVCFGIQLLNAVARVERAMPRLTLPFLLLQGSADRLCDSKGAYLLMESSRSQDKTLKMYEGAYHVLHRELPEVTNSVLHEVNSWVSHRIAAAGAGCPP
T2 sequence (O08914 whole entry): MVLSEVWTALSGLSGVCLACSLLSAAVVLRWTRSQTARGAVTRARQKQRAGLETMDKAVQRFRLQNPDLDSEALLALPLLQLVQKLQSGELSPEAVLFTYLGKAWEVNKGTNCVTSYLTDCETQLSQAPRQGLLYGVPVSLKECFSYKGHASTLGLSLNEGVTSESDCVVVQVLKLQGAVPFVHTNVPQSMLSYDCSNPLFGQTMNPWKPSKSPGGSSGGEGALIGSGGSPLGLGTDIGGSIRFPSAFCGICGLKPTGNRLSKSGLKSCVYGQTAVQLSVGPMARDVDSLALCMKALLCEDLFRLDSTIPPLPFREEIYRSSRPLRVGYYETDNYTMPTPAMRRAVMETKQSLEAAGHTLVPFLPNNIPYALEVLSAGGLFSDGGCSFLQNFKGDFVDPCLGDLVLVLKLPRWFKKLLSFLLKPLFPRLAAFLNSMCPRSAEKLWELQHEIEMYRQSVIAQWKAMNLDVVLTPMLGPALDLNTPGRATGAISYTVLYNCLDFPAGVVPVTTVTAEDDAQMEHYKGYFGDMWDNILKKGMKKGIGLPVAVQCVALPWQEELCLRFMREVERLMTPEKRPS
Chain of MAGL (Homo sapiens (Human), UniProt Q99685) (Q99685 whole entry): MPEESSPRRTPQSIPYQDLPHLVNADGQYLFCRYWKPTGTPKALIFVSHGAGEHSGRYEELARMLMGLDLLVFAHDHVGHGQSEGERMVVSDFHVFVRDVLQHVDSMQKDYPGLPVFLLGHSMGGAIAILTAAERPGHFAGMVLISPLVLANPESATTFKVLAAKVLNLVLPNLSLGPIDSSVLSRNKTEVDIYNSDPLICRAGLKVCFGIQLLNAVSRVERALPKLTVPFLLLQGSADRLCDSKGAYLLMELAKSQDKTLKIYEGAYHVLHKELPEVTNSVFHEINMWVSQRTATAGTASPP

Compound	inhibition at 1 µM [1] [%]	inhibition at 1 µM [2] [%]	inhibition at 1 µM [3] [%]	IC50 [4] [nM]	ABHD6 % Inh 5 mg/kg (mouse) [5]	FAAH % Inh 5 mg/kg (mouse) [6]	MAGL % Inh 5 mg/kg (mouse) [7]	IC50 [2] [nM]	IC50 [3] [nM]
CC1(C(=O)O)CCN(c2cc(CN3CCCC34CCN(C(=O)OC(C(F)(F)F)C(F)(F)F)CC4)cc(C(F)(F)F)c2)C1 (stereo not drawn) [Example 231]	< 25	< 25	> 75	< 100					
CC(=O)N1CCCc2cccc(CN3CCC4(CCN(C(=O)OC(C(F)(F)F)C(F)(F)F)CC4)C3)c21 [Example 70, 1,1,1,3,3,3-Hexafluoropropan-2-yl 2-((1-acetyl-1,2,3,4-tetrahydroquinolin-8-yl)methyl)-2,8-diazaspiro[4.5]decane-8-carboxylate]					### (### is ≥ 75%)	# (# is < 25%)	### (### is ≥ 75%)	> 1000	< 100
O=C(O)C1CCN(c2cc(F)ccc2CN2CCCC23CCN(C(=O)OC(C(F)(F)F)C(F)(F)F)CC3)CC1 [Example 235]	< 25	< 25							
O=C(O)C1CCCCN1c1cc(CN2CCCC23CCN(C(=O)OC(C(F)(F)F)C(F)(F)F)CC3)cc(C(F)(F)F)c1 (stereo not drawn) [Example 226]	< 25	< 25	> 75	< 100	# (# is < 25%)	# (# is < 25%)	### (### is ≥ 75%)		
O=C(OC(C(F)(F)F)C(F)(F)F)N1CCC2(CCCN2Cc2ccc(N3CCCC3)c(Cl)c2)CC1 [Example 128, 1,1,1,3,3,3-Hexafluoropropan-2-yl 1-(3-chloro-4-(pyrrolidin-1-yl)benzyl)-1,8-diazaspiro[4.5]decane-8-carboxylate]					# (# is < 25%)	# (# is < 25%)	### (### is ≥ 75%)		
O=C(O)[C@H]1CCCCN1c1cc(CN2CCCC23CCN(C(=O)OC(C(F)(F)F)C(F)(F)F)CC3)cc(C(F)(F)F)c1 [Example 274]					# (# is < 25%)	# (# is < 25%)	### (### is ≥ 75%)		
O=C(OC(C(F)(F)F)C(F)(F)F)N1CCC2(CCCN2Cc2cc(Oc3nc4ccccc4s3)cc(C(F)(F)F)c2)CC1 [Example 172, 1,1,1,3,3,3-Hexafluoropropan-2-yl 1-(3-(benzo[d]thiazol-2-yloxy)-5-(trifluoromethyl)benzyl)-1,8-diazaspiro[4.5]decane-8-carboxylate]					# (# is < 25%)	# (# is < 25%)	# (# is < 25%)		
O=C(OC(C(F)(F)F)C(F)(F)F)N1CCC2(CCCN2Cc2ccc(Cl)cc2N2CCCC2)CC1 [Example 76, 1,1,1,3,3,3-Hexafluoropropan-2-yl 1-(4-chloro-2-(pyrrolidin-1-yl)benzyl)-1,8-diazaspiro[4.5]decane-8-carboxylate]					# (# is < 25%)	# (# is < 25%)	### (### is ≥ 75%)		
O=C(OC(C(F)(F)F)C(F)(F)F)N1CCC2(CCCN2Cc2ccc(C(F)(F)F)cc2N2CCOCC2)CC1 [Example 67, 1,1,1,3,3,3-Hexafluoropropan-2-yl 1-(2-morpholino-4-(trifluoromethyl)benzyl)-1,8-diazaspiro[4.5]decane-8-carboxylate]					# (# is < 25%)	# (# is < 25%)	### (### is ≥ 75%)		
O=C(OC(C(F)(F)F)C(F)(F)F)N1CCC2(CCCN2Cc2cc(N3CC4COCC4C3)cc(C(F)(F)F)c2)CC1 (stereo not drawn) [Example 46, 1,1,1,3,3,3-Hexafluoropropan-2-yl 1-(3-(tetrahydro-1H-furo[3,4-c]pyrrol-5(3H)-yl)-5-(trifluoromethyl)benzyl)-1,8-diazaspiro[4.5]decane-8-carboxylate]					# (# is < 25%)	# (# is < 25%)	### (### is ≥ 75%)		
O=C(O)[C@@H]1CCCCN1c1cc(CN2CCCC23CCN(C(=O)OC(C(F)(F)F)C(F)(F)F)CC3)cc(C(F)(F)F)c1 [Example 196, (S)-1-(3-((8-(((1,1,1,3,3,3-Hexafluoropropan-2-yl)oxy)carbonyl)-1,8-diazaspiro[4.5]decan-1-yl)methyl)-5-(trifluoromethyl)phenyl)piperidine-2-carboxylic acid]					# (# is < 25%)	# (# is < 25%)	### (### is ≥ 75%)		
CCOc1cc(CN2CCCC23CCN(C(=O)OC(C(F)(F)F)C(F)(F)F)CC3)ccc1Cl [Example 32, 1,1,1,3,3,3-Hexafluoropropan-2-yl 1-(4-chloro-3-ethoxybenzyl)-1,8-diazaspiro[4.5]decane-8-carboxylate]					# (# is < 25%)	# (# is < 25%)	### (### is ≥ 75%)		

Source: US10781211B2, “Spirocycle compounds and methods of making and using same” (Lundbeck La Jolla Research Center, Inc., priority 2016, dated 2020)
